Experimental data: patent US9267129B2, “Compositions and methods for conferring herbicide resistance” (BEN-GURION UNIVERSITY OF THE NEGEV RESEARCH AND DEVELOPMENT …, priority 2011, dated 2016)

Columns and labels:
[1] = system: E. coli BUM1 transformed with pAH29 (bacterial AHASII); experiment: Growth on M9 plates with SMM, bacteria transformed with pAH29; type: cell-based, Escherichia coli; conditions: 50 μM SMM, 48 hrs, 37° C.
Procedure: (§1) This strain also requires proline and thiamin, regardless of AHAS expression. Transformation of BUM1 cells was achieved using a standard heat shock protocol. BUM1 cells were grown in LB or in M9 minimal medium (7 mg/ml Na2HPO4; 3 mg/ml KH2PO4; 0.5 mg/ml NaCl; 1 mg/ml NH4Cl; 0.12 mg/ml MgSO4; 0.35 mg/ml thiamin HCl; 2 mg/ml glucose) supplemented with 200 μg/ml proline. Where appropriate, the M9 medium was supplemented with the BCAAs valine, leucine, and isoleucine (150 μg/ml of each) or with 50 μM SMM. BUM1 transformants were propagated and kept on LB medium supplemented with 100 μg/ml Ampicillin. For functional expression assays, the cells were washed and plated on M9 agar plates and incubated for 48 hrs at 37° C. […]
(§2) The expression vector pEp-empty, an empty plasmid that retains the native ilvEp promoter and ATG start codon, was created by amplification of pAH29 plasmid with the pAH29-empty primer set, and included BamHI and SalI restriction sites for future fusion with the algal genes. Three forms of PiAHAS genes were used for this experiment: PiAHAS full open reading frame (ORF), truncated PiAHAS without the estimated chloroplast targeting peptide (from Serine91), and PimAHAS containing the point mutation (W605S). […] The plates were incubated for 48 hrs (FIG. 3) and bacterial growth was determined. […]

[2] = system: E. coli BUM1 transformed with the wild type PiAHAS genes; experiment: Growth on M9 plates with SMM, bacteria transformed with wild type PiAHAS genes; type: cell-based, Escherichia coli; conditions: 50 μM SMM, 48 hrs, 37° C.
Procedure: as §1, §2

SMILES: COC(=O)c1ccccc1S(=O)(=O)NC(=O)Nc1nc(C)cc(C)n1 [SMM, sulfometuron methyl]
- bacterial growth in presence of SMM [1]: able to grow slowly
- bacterial growth in presence of SMM [2]: totally inhibited
